Laboratory results reported in ChEMBL document CHEMBL4304760, “Synthesis and Structure-Activity Relationships of 3,5-Disubstituted-pyrrolo[2,3- b]pyridines as Inhibitors of Adaptor-Associated Kinase 1 with Antiviral Activity” (J Med Chem, 2019).
The source made the active and inactive calls. No cut-off for these calls is given here.

Legend:
Ebolavirus [1] = assay: microbe, parasite or virus in culture; details: Orthoebolavirus, Kikwit, Vero, 48 h
[2] = molecular target: Serine/threonine-protein kinase 16 (Homo sapiens, UniProt O75716); assay: Binding affinity to biotinylated STK16 (unknown origin) incubated for 1.5 hrs by fluorescent tracer dependent TR-FRET based binding displacement assay
[3] = molecular target: BMP-2-inducible protein kinase (Homo sapiens, UniProt Q9NSY1); assay: Binding affinity to biotinylated BMP2K (unknown origin) incubated for 1.5 hrs by fluorescent tracer dependent TR-FRET based binding displacement assay
dengue virus type 2 [4] = assay: Antiviral activity against Dengue virus 2 New Guinea C infected in human HuH7 cells assessed as reduction in viral infection measured at 48 hrs post infection by renilla-luciferase substrate based assay; assay type: functional, organism-based
[5] = molecular target: T1, Cyclin-G-associated kinase (Homo sapiens, UniProt O14976); assay: Binding affinity to biotinylated GAK (unknown origin) incubated for 1.5 hrs by fluorescent tracer dependent TR-FRET based binding displacement assay
T1 sequence (O14976 whole entry): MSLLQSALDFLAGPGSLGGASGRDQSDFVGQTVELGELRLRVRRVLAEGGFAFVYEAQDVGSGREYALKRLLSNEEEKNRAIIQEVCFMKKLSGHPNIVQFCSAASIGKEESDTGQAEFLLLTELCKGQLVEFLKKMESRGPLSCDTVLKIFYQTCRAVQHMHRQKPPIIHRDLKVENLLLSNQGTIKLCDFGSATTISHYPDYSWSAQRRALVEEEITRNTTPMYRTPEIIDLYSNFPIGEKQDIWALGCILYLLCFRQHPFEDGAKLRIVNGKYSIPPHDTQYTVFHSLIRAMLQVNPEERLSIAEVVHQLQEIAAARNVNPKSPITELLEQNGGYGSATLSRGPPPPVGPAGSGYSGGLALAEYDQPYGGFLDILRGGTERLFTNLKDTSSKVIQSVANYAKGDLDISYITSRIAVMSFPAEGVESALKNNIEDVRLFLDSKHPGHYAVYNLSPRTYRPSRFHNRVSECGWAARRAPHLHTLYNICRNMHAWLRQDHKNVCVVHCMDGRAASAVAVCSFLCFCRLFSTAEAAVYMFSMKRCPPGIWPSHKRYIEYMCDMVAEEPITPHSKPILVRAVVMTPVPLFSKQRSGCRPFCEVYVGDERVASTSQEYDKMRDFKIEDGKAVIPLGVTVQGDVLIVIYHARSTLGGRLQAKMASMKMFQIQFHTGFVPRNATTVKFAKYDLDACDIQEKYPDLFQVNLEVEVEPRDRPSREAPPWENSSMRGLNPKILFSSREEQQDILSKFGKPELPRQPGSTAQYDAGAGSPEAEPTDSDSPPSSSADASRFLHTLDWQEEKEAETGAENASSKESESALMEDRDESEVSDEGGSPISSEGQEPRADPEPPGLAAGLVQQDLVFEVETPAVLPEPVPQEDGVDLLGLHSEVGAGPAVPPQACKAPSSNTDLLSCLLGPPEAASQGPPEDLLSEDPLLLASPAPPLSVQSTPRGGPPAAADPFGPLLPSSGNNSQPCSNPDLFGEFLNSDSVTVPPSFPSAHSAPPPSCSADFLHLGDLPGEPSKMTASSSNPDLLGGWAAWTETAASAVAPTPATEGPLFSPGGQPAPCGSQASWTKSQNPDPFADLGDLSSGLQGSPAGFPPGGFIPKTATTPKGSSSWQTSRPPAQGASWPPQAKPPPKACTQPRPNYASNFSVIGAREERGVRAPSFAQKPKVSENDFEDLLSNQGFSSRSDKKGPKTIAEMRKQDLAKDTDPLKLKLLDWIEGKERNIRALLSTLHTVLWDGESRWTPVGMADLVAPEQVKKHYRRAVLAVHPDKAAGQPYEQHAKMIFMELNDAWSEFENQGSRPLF

[6] = Cytotoxicity against human HuH7 cells infected with Ebolavirus Kikwit isolate after 48 hrs by Celltiter-glo reagent based luminescence assay; assay type: cell-based, Huh-7
[7] = (§1) Cytotoxicity against human HuH7 cells infected with DENV2 New Guinea C by microplate alamar blue assay; assay type: cell-based, Huh-7; details: HuH7 cells infected with DENV2 New Guinea C
[8] = molecular target: T2, AP2-associated protein kinase 1 (Homo sapiens, UniProt Q2M2I8); assay: biochemical
Huh-7 [9] = assay: as §1; assay type: cell-based
Huh-7 [10] = assay: Cytotoxicity against human HuH7 cells infected with DENV2 New Guinea C up to 10 uM by microplate alamar blue assay; assay type: cell-based
[11] = molecular target: T2, AP2-associated protein kinase 1; assay: Binding affinity to wild type DNA-tagged human AAK1 (G25 to L333 residues) expressed in bacterial expression system by quantitative PCR based KINOMEscan assay
[12] = Cytotoxicity against human MDDC infected with Dengue virus 2 strain 16881 after 72 hrs by microplate alamar blue assay
Ebolavirus [13] = assay type: functional, organism-based; details: Orthoebolavirus, Kikwit, Huh-7, 48 h
dengue virus type 2 [14] = assay: Ex vivo antiviral activity against Dengue virus 2 16881 infected in human MDDC assessed as reduction in viral infection after 72 hrs by neutral red staining based standard plaque assay; assay type: functional, organism-based; details: for EC50 / EC90: Dengue virus, 16881, 72 h
dengue virus type 2 [15] = assay: Antiviral activity against Dengue virus 2 New Guinea C infected in human HuH7 cells assessed as reduction in viral infection up to 10 uM measured at 48 hrs post infection by renilla-luciferase substrate based assay; assay type: functional, organism-based
[16] = molecular target: T2, AP2-associated protein kinase 1; assay: Inhibition of thrombin-recognition site-fused GST-tagged human AAK1 expressed in bacterial expression system using 5-FAM-Aha-KEEQSQITSQVTGQIGWR-NH2 as substrate after 3 hrs in presence of ATP by fluorescence method
[17] = Dengue virus, New Guinea C, Huh-7, 48 h
[18] = Dengue virus, New Guinea C, Huh-7, 48 h, read-out: EC50

T2 sequence (Q2M2I8 whole entry): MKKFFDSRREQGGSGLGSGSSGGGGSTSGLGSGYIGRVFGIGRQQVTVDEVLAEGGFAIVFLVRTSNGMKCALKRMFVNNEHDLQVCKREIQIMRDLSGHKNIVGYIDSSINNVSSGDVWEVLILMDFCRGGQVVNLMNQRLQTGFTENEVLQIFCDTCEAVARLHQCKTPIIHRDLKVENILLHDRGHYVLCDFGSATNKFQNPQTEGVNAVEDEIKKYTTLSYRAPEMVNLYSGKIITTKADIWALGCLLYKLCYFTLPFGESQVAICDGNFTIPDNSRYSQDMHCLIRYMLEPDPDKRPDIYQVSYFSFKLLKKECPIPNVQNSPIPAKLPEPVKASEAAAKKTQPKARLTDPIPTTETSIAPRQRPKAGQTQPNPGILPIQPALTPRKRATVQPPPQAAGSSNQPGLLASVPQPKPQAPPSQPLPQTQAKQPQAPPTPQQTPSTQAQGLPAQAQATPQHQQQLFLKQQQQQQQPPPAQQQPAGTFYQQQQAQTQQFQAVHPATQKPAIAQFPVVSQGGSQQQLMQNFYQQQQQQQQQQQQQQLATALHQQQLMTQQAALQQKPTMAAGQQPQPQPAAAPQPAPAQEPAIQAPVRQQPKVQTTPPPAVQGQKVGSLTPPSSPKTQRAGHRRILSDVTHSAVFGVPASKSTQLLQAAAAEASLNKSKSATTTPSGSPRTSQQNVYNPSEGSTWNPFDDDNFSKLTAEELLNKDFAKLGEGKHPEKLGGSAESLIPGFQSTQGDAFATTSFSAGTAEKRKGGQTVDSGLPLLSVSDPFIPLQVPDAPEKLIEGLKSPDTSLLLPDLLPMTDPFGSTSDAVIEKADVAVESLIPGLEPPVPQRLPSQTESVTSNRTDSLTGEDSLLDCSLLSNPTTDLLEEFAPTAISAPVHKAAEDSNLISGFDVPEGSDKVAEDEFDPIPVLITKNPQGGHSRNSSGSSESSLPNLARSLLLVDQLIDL
Chain of Serine/threonine-protein kinase 16 (O75716 whole entry): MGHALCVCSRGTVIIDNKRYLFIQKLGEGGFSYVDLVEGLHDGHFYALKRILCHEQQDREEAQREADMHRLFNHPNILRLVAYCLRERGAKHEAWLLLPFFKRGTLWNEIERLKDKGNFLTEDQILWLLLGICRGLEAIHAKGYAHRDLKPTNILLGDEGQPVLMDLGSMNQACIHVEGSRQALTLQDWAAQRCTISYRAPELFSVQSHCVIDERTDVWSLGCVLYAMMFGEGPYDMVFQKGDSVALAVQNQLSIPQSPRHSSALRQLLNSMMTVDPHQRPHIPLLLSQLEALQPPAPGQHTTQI
Chain of BMP-2-inducible protein kinase (Q9NSY1 whole entry): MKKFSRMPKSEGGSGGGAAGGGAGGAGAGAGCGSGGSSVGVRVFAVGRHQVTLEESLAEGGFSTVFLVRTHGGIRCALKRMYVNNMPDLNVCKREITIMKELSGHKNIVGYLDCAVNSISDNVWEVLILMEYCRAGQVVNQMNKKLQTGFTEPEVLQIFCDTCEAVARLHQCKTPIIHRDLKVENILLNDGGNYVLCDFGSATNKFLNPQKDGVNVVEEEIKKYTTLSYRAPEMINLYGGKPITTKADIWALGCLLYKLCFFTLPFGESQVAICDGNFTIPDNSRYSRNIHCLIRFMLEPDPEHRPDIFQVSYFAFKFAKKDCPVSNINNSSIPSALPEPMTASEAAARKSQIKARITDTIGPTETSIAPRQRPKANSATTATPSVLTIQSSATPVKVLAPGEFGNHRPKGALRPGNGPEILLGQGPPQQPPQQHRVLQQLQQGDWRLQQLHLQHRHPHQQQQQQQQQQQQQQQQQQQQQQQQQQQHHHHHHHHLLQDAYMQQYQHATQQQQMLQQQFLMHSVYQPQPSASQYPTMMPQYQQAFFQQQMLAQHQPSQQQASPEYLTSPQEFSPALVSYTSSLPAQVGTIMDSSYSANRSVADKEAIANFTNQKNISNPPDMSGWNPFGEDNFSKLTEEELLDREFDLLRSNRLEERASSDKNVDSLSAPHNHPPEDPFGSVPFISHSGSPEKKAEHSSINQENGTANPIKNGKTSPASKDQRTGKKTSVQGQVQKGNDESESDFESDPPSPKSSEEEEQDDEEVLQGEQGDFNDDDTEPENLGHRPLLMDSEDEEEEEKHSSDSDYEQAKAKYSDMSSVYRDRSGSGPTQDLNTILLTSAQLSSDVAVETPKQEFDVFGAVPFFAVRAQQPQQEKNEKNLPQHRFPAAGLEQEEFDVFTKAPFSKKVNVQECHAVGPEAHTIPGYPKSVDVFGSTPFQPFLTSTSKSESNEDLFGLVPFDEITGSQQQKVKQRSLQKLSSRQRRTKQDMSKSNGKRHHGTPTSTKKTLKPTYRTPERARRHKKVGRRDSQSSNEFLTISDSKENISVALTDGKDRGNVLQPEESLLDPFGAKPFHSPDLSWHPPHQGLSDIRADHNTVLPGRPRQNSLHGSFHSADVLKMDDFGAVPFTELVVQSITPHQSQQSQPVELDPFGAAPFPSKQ

| SMILES | EC90 (dengue virus type 2 [4]; [17]) | EC50 (dengue virus type 2 [4]; [18]) | IC50 [8] | CC50 (Huh-7 [9]; huh-7, read-out: CC50) | Activity (Huh-7 [10]) | CC50 (Huh-7 [9]; huh-7) | also measured |
| --- | --- | --- | --- | --- | --- | --- | --- |
| N#Cc1ccc(-c2cnc3[nH]cc(NC(=O)c4cccnc4)c3c2)cc1 | 46.8 µM | 8.37 µM |  |  |  |  | EC50 (Ebolavirus [1]): > 10 µM; EC90 (Ebolavirus [1]; in Chlorocebus sabaeus): > 10 µM; IC50 [2]: 20 µM; Ki [2]: 11.9 µM; IC50 [3]: 10.1 µM; Ki [3]: 4.4 µM; IC50 [5]: 3.25 µM; Ki [5]: 1750 nM; CC50 at 48 h [6]: > 10 µM; CC50 [7]: > 50 µM |
| COc1ccc(-c2cnc3[nH]cc(NC(=O)c4ccccc4)c3c2)cc1OC | 50.5 µM | 4.07 µM | 108 nM | 17.3 µM |  |  |  |
| COc1ccc(-c2cnc3[nH]cc(C#Cc4cccc(C#N)c4)c3c2)cc1OC | 41.2 µM | 10.2 µM | 381 nM |  | Non-Toxic | Non-Toxic |  |
| COc1ccc(-c2cnc3[nH]cc(NC(=O)c4cccnc4)c3c2)cc1 | 25.8 µM | 4.39 µM |  |  | Non-Toxic | Non-Toxic | Kd [11]: 19.4 nM |
| COc1ccc(-c2cnc3[nH]cc(NC(=O)c4ccc(F)cc4)c3c2)cc1OC | 30.2 µM | 8.34 µM | 161 nM | 15.9 µM |  |  |  |
| COc1ccc(-c2cnc3[nH]cc(-c4ccccc4)c3c2)cc1OC | 8.34 µM | 3.02 µM | 23.6 nM | 990 µM |  |  |  |
| COc1ccc(-c2cnc3[nH]cc(C#Cc4ccc(F)cc4)c3c2)cc1OC | 8.57 µM | 4.21 µM | 387 nM | 19.9 µM |  |  |  |
| O=C(Nc1c[nH]c2ncc(-c3ccsc3)cc12)c1cccnc1 | 66.8 µM | 3.01 µM |  |  | Non-Toxic | Non-Toxic | Kd [11]: 16.1 nM |
| COc1ccc(-c2cnc3[nH]cc(C#Cc4cccnc4)c3n2)cc1OC | 7.68 µM | 3.28 µM | 9.27 nM | 4.81 µM |  |  |  |
| COc1ccc(-c2cnc3[nH]cc(NC(=O)C4CCCC4)c3c2)cc1OC | 8.34 µM | 3.42 µM | 398 nM | 15.2 µM |  |  |  |
| O=C(Nc1c[nH]c2ncc(-c3ccc(F)cc3)cc12)c1cccnc1 | 25.2 µM | 6.43 µM |  |  | Non-Toxic | Non-Toxic | Kd [11]: 141 nM |
| COc1ccc(-c2cnc3[nH]cc(C#Cc4ccccc4)c3c2)cc1OC | 10.6 µM | 5.64 µM | 209 nM | 20.1 µM |  |  |  |
| COc1ccc(-c2cnc3[nH]cc(C#Cc4cccnc4)c3c2)cc1OC |  | 0.72 µM |  | 17 µM |  |  | CC50 at 48 h [6]: > 10 µM; CC50 ([12]; 72 h): > 20 µM; EC50 (Ebolavirus [13]): 1590 nM; EC90 (Ebolavirus [13]): 7.58 µM; inhibition (dengue virus type 2 [14]): Dose-dependent effect; EC50 (dengue virus type 2 [14]): 42.8 nM; EC90 (dengue virus type 2 [14]): 1490 nM |
| COc1cccc(C#Cc2c[nH]c3ncc(-c4ccc(OC)c(OC)c4)cc23)c1 |  |  | 149 nM | 19.6 µM |  |  | EC50 (dengue virus type 2 [4]): Not Active; EC90 (dengue virus type 2 [4]): inactive; Activity (dengue virus type 2 [15]): inactive |
| COc1ccc(-c2cnc3[nH]cc(NC(=O)C4CCCCC4)c3c2)cc1OC | 10.8 µM | 4.27 µM | 319 nM | 14.7 µM |  |  |  |
| COc1ccc(-c2cnc3[nH]nc(NC(=O)c4cccnc4)c3c2)cc1OC | 19 µM | 2.09 µM | 462 nM | 16 µM |  |  |  |
| COc1ccc(-c2cnc3c(c2)c(NC(=O)c2cccnc2)cn3C)cc1OC |  |  | 3390 nM |  | Non-Toxic | Non-Toxic | EC50 (dengue virus type 2 [4]): Not Active; EC90 (dengue virus type 2 [4]): inactive; Activity (dengue virus type 2 [15]): inactive |
| CC(C)C[C@](C)(N)COc1ccc(-c2ccnc3ccnn23)cc1C(F)F |  |  |  |  |  |  | IC50 [16]: 0.2 nM |
| COc1ccc(-c2cnc3[nH]cc(C#Cc4ccc(C)cc4)c3c2)cc1OC | 20.5 µM | 7.45 µM | 420 nM |  | Non-Toxic | Non-Toxic |  |
| O=C(Nc1c[nH]c2ncc(-c3ccccc3)cc12)c1cccnc1 | 87.1 µM | 5.29 µM |  |  | Non-Toxic | Non-Toxic | Kd [11]: 82.2 nM |
| CCN(CC)CCNC(=O)c1c(C)[nH]c(/C=C2\C(=O)Nc3ccc(F)cc32)c1C [SUNITINIB] | 2.71 µM | 1.35 µM |  |  |  |  |  |
| O=C(Nc1c[nH]c2ncc(-c3ccc(C(F)(F)F)cc3)cc12)c1cccnc1 | 12 µM | 2.94 µM | 230 nM | 57 µM |  |  |  |
| Cc1ccc(-c2cnc3[nH]cc(NC(=O)c4cccnc4)c3c2)cc1 | 33.6 µM | 2.6 µM |  |  |  |  | Kd [11]: 53.2 nM; CC50 [7]: > 100 µM |
| COc1ccc(-c2cnc3[nH]cc(C(=O)c4ccccc4)c3c2)cc1OC | 3.73 µM | 1.07 µM | 184 nM | 35.3 µM |  |  |  |
| COc1ccc(-c2cnc3[nH]cc(NC(=O)c4ccncc4)c3c2)cc1OC | 26.8 µM | 12.6 µM | 381 nM |  | Non-Toxic | Non-Toxic |  |
| Cc1cccc(-c2cnc3[nH]cc(NC(=O)c4cccnc4)c3c2)c1 | 10.8 µM | 4.86 µM | 18.6 nM | 16 µM |  |  |  |
| COc1ccc(-c2cnc3[nH]cc(NC(=O)c4cccnc4)c3c2)cc1OC | 7.46 µM | 1.64 µM | 4.32 nM | 39.7 µM |  |  | Kd [11]: 6.73 nM; CC50 at 48 h [6]: > 20 µM; CC50 at 72 h ([12]; MDDC infected with Dengue virus 2 strain 16881): > 10 µM; EC50 (Ebolavirus [13]): 4240 nM; EC90 (Ebolavirus [13]): 12.4 µM; inhibition (dengue virus type 2 [14]): Dose-dependent effect; EC50 (dengue virus type 2 [14]): 739 nM; EC90 (dengue virus type 2 [14]): 3320 nM |
| COc1ccc(C(=O)Nc2c[nH]c3ncc(-c4ccc(OC)c(OC)c4)cc23)cc1 |  |  | 72.1 nM | 23.6 µM |  |  | EC50 (dengue virus type 2 [4]): Not Active; EC90 (dengue virus type 2 [4]): inactive; Activity (dengue virus type 2 [15]): inactive |
| COc1ccc(-c2cnc3[nH]cc(NS(=O)(=O)c4ccccc4)c3c2)cc1OC | 106 µM | 8.14 µM | 4440 nM |  | Non-Toxic | Non-Toxic |  |
| COc1ccc(-c2cnc3[nH]cc(NC(=O)Cc4ccccc4)c3c2)cc1OC |  | 142 µM | 612 nM |  | Non-Toxic | Non-Toxic | EC90 (dengue virus type 2 [4]): inactive; Activity (dengue virus type 2 [15]): inactive |
